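Method: 48-hour compound exposure of cells in 96-well plates, five concentrations, linear interpolation of endpoints. GI50 marks 50% less growth. TGI is the concentration that stops growth completely.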
Columns and labels:
Test in all cases: growth of human tumour cells (NCI), 48 h
[1] = tested on: MDA-MB-435
[2] = tested on: MOLT-4 leukemia
[3] = tested on: PC-3 prostate
[4] = tested on: SK-MEL-5 melanoma
[5] = tested on: UACC-257 melanoma
[6] = tested on: CCRF-CEM leukemia
[7] = tested on: NCI-H460 lung
[8] = tested on: OVCAR-3 ovarian
[9] = tested on: HCC-2998 colon
[10] = tested on: KM12 colon
[11] = tested on: HS 578T breast
[12] = tested on: U251 CNS
[13] = tested on: HCT-116 colon
[14] = tested on: SK-OV-3 ovarian
[15] = tested on: SW-620 colon
[16] = tested on: T-47D breast
[17] = tested on: TK-10 renal
[18] = tested on: MALME-3M melanoma
[19] = tested on: A549 NSCLC
[20] = tested on: NCI-H522 lung
[21] = tested on: COLO 205 colon
[22] = tested on: OVCAR-5 ovarian
[23] = tested on: HOP-62 NSCLC
[24] = tested on: IGROV1 ovarian
[25] = tested on: SF-268 CNS
[26] = tested on: LOX IMVI melanoma
[27] = tested on: MDA-MB-231 breast
[28] = tested on: SR leukemia
[29] = tested on: SN12C renal
[30] = tested on: NCI/ADR-RES ovarian
[31] = tested on: NCI-H23 lung
[32] = tested on: EKVX NSCLC
[33] = tested on: CAKI-1 renal
[34] = tested on: ACHN renal
[35] = tested on: BT-549 breast
[36] = tested on: SNB-75 CNS
[37] = tested on: UACC-62 melanoma
[38] = tested on: SF-295 CNS
[39] = tested on: HL-60(TB) leukemia
[40] = tested on: A498 renal
[41] = tested on: NCI-H226 lung
[42] = tested on: HCT-15 colon
[43] = tested on: 786-0 renal
[44] = tested on: DU-145 prostate
[45] = tested on: SF-539 CNS
[46] = tested on: RXF 393 renal
[47] = tested on: UO-31 renal
[48] = tested on: K-562 leukemia
[49] = tested on: OVCAR-4 ovarian
[50] = tested on: OVCAR-8 ovarian
[51] = tested on: SK-MEL-2 melanoma
[52] = tested on: SNB-19 CNS
[53] = tested on: HT29 colon
[54] = tested on: RPMI-8226 leukemia
[55] = tested on: SK-MEL-28 melanoma
[56] = tested on: MCF7 breast
[57] = tested on: M14 melanoma

Work on CC/C=C\C[C@H](F)C/C=C1/C(=O)C=C[C@@H]1C/C=C\CCCC(=O)O yielded a GI50 [1] of 4.06 µM, a TGI [1] of 11.3 µM and a GI50 [2] of 1.14 µM. It also gave a TGI [2] of 12 µM, a GI50 [3] of 6.09 µM and a TGI [3] of 15.7 µM. For the same compound, the GI50 [4] was 4.86 µM, the TGI [4] was 9.18 µM and the GI50 [5] was 5.23 µM. For the same compound, the TGI [5] was 11.4 µM, the GI50 [6] was 1.05 µM and the TGI [6] was 11.1 µM. It also gave a GI50 [7] of 9.35 µM, a TGI [7] of 30.9 µM and a GI50 [8] of 7.96 µM. The TGI [8] was 22.1 µM, the GI50 [9] was 6.93 µM and the TGI [9] was 12.2 µM. It also gave a GI50 [10] of 4.65 µM, a TGI [10] of 13.3 µM and a GI50 [11] of 13 µM. The TGI [11] was > 32.5 µM, the GI50 [12] was 4.01 µM and the TGI [12] was 8.94 µM. It also gave a GI50 [13] of 1.34 µM, a TGI [13] of 4.78 µM and a GI50 [14] of 12.6 µM. For the same compound, the TGI [14] was > 32.5 µM, the GI50 [15] was 5.64 µM and the TGI [15] was 21.3 µM. The GI50 [16] was 6.37 µM, the TGI [16] was 23.2 µM and the GI50 [17] was 12.2 µM. For the same compound, the TGI [17] was 27.4 µM, the GI50 [18] was 8.08 µM and the TGI [18] was 23.2 µM. The GI50 [19] was 7.3 µM, the TGI [19] was 18.8 µM and the GI50 [20] was 4.58 µM. For the same compound, the TGI [20] was 10.9 µM, the GI50 [21] was 5.3 µM and the TGI [21] was 12.2 µM. For the same compound, the GI50 [22] was 8.18 µM, the TGI [22] was 21 µM and the GI50 [23] was 7.65 µM. For the same compound, the TGI [23] was 15.2 µM, the GI50 [24] was 9.97 µM and the TGI [24] was 32.1 µM. For the same compound, the GI50 [25] was 6.55 µM, the TGI [25] was 22.4 µM and the GI50 [26] was 3.77 µM. For the same compound, the TGI [26] was 7.97 µM, the GI50 [27] was 12.7 µM and the TGI [27] was > 32.5 µM. The GI50 [28] was 1.04 µM, the TGI [28] was 7.49 µM and the GI50 [29] was 7.01 µM. For the same compound, the TGI [29] was 20.5 µM, the GI50 [30] was 6.78 µM and the TGI [30] was > 32.5 µM. The GI50 [31] was 7.36 µM, the TGI [31] was 20.4 µM and the GI50 [32] was 7.59 µM. The TGI [32] was 25.1 µM, the GI50 [33] was 6.52 µM and the TGI [33] was 22.5 µM. It also gave a GI50 [34] of 4.99 µM, a TGI [34] of 9.85 µM and a GI50 [35] of 6.07 µM. For the same compound, the TGI [35] was 12.5 µM, the GI50 [36] was 12.5 µM and the TGI [36] was > 32.5 µM. For the same compound, the GI50 [37] was 4.29 µM, the TGI [37] was 11.1 µM and the GI50 [38] was 7.54 µM. For the same compound, the TGI [38] was 17.2 µM, the GI50 [39] was 3.41 µM and the TGI [39] was 16.8 µM. For the same compound, the GI50 [40] was 5.59 µM, the TGI [40] was 11 µM and the GI50 [41] was 8.8 µM. For the same compound, the TGI [41] was 21 µM, the GI50 [42] was 4.45 µM and the TGI [42] was 13.8 µM. The GI50 [43] was 7.24 µM, the TGI [43] was 13.3 µM and the GI50 [44] was 8.02 µM. It also gave a TGI [44] of 32.4 µM, a GI50 [45] of 7.21 µM and a TGI [45] of 17 µM. For the same compound, the GI50 [46] was 5.19 µM, the TGI [46] was 10.2 µM and the GI50 [47] was 5.78 µM. The TGI [47] was 12.4 µM, the GI50 [48] was 2.18 µM and the TGI [48] was > 32.5 µM. The GI50 [49] was 7.76 µM, the TGI [49] was > 32.5 µM and the GI50 [50] was 1.21 µM. The TGI [50] was 5.71 µM, the GI50 [51] was 6.7 µM and the TGI [51] was 16.9 µM. For the same compound, the GI50 [52] was 7.31 µM, the TGI [52] was 25.4 µM and the GI50 [53] was 5.4 µM. The TGI [53] was 15 µM, the GI50 [54] was 1.22 µM and the TGI [54] was 30.8 µM. It also gave a GI50 [55] of 4.98 µM, a TGI [55] of 11.4 µM and a GI50 [56] of 1.32 µM. The TGI [56] was > 32.5 µM, the GI50 [57] was 6.53 µM and the TGI [57] was 20 µM.
